Key:
[1] = target: T1, 5-HT2A receptor (Homo sapiens, UniProt P28223); assay: Calcium mobilization assay, agonist format, 5-HT2A; format: cell-based; conditions: % activity relative to control ligand, read-out: 5-HT2A agonist efficacy @10 µM
T1 construct: host or cells: unnamed cell lines
Procedure: (§1) Protocol—in vitro testing at select 5-hydroxytryptamine (5-HT; serotonin) receptors was conducted.
(§2) • 1. Cell lines were expanded from freezer stocks according to standard procedures. • 2. Cells were seeded in a total volume of 20 μL into black-walled, clear-bottom, Poly-D-lysine coated 384-well microplates and incubated at 37° C. for the appropriate time prior to testing.
(§3) • 1. Assays were performed in 1× Dye Loading Buffer consisting of 1× Dye, 1× Additive A and • 2.5 mM Probenecid in HBSS/20 mM Hepes. Probenicid was prepared fresh. • 2. Cells were loaded with dye prior to testing. Media was aspirated from cells and replaced with 20 μL Dye Loading Buffer. • 3. Cells were incubated for 30-60 minutes at 37° C.
(§4) • 1. For agonist determination, cells were incubated with sample to induce response. • 2. After dye loading, cells were removed from the incubator and 10 μL HBSS/20 mM Hepes was added. 3× vehicle was included in the buffer when performing agonist dose curves to define the EC80 for subsequent antagonist assays. Cells were incubated for 30 minutes at room temperature in the dark to equilibrate plate temperature. • 3. Intermediate dilution of sample stocks was performed to generate 4× sample in assay buffer. • 4. Compound agonist activity was measured on a FLIPR Tetra (MDS). Calcium mobilization was monitored for 2 minutes and 10 μL 4× sample in HBSS/20 mM Hepes was added to the cells 5 seconds into the assay.
(§5) • 1. Compound activity was analyzed using CBIS data analysis suite (ChemInnovation, CA). • 2. For agonist mode assays, percentage activity is calculated using the following formula: % Activity=100%×(mean RFU of test sample−mean RFU of vehicle control)/(mean MAX RFU control ligand −mean RFU of vehicle control). • 3. For positive allosteric mode assays, percentage modulation was calculated using the following formula: % Modulation=100%×((mean RFU of test sample−mean RFU of EC20 control)/(mean RFU of MAX control ligand −mean RFU of EC20 control)). • 4. For antagonist and negative allosteric modulation mode assays, percentage inhibition is calculated using the following formula: % Inhibition=100%×(1−(mean RFU of test sample−mean RFU of vehicle control)/(mean RFU of EC80 control−mean RFU of vehicle control)).

[2] = target: T2, 5-HT2C receptor (Homo sapiens, UniProt P28335); assay: Calcium mobilization assay, antagonist format, 5-HT2C; format: cell-based; conditions: for antagonism of the 5-HT2C receptor: 10 μM (ten micromolar); for inhibition at 10 µM: agonist challenge at EC80
T2 construct: host or cells: unnamed cell lines
T2 sequence (P28335 33-458): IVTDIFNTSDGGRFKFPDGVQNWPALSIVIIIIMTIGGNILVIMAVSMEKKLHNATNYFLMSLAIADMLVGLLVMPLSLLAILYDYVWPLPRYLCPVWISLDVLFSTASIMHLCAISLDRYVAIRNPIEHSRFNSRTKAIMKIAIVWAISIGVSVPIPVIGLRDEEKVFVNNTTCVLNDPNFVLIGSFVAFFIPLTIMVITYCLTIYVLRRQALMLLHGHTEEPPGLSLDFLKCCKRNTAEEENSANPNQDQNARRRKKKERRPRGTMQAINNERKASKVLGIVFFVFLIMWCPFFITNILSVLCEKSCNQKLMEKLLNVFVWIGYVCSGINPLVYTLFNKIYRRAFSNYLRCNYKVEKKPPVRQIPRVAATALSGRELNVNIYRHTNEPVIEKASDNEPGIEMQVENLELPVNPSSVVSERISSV
Procedure: as §1, §2, §3
(§6) • 1. For antagonist determination, cells were pre-incubated with sample followed by agonist challenge at the EC80 concentration. • 2. Intermediate dilution of sample stocks was performed to generate 3× sample in assay buffer. • 3. After dye loading, cells were removed from the incubator and 10 μL 3× sample was added. Cells were incubated for 30 minutes at room temperature in the dark to equilibrate plate temperature. Vehicle concentration was 1%. • 4. Compound antagonist activity was measured on a FLIPR Tetra (MDS). Calcium mobilization was monitored for 2 minutes and 10 μL EC80 agonist in HBSS/20 mM Hepes was added to the cells 5 seconds into the assay.
as §5
[…] For research comparative purposes, a literature compound—(R)-1-(5-methoxy-1H-indol-1-yl)-N,N-dimethylpropan-2-amine (AAZ-A-154) (Cell 2021, 184, 2779-2792.e18)—was included in the screening assays. Additionally, 5-hydroxytryptamine/serotonin (5-HT) was included in the screening assay as a positive control agonist, and SB242084 was used in the screening assay as a literature 5-HT2C antagonist positive control. […] Compounds 2, 3 and 93 each achieved greater than 75% antagonism of the 5-HT2C receptor, with compounds 3 and 93 achieving approximately 98% and 97% antagonism, respectively.

[3] = target: T1, 5-HT2A receptor; assay: Calcium mobilization assay, antagonist format, 5-HT2A; format: cell-based; conditions: @100 nM; agonist challenge at EC80
Procedure: as §1, §2, §3, §6, §5
Compounds were evaluated as 5-HT2A antagonists at 100 nM (one hundred nanomolar), or may be evaluated at a higher concentration. For research comparative purposes, a literature compound—(R)-1-(5-methoxy-1H-indol-1-yl)-N,N-dimethylpropan-2-amine (AAZ-A-154) (Cell 2021, 184, 2779-2792.e18)—was included in the screening assays. Additionally, 5-hydroxytryptamine/serotonin (5-HT) was included in the screening assay as a positive control agonist, and Altanserin HCl was included as a 5-HT2A antagonist positive control.

[4] = target: T3, 5-HT2B receptor (Homo sapiens, UniProt P41595); assay: Calcium mobilization assay, agonist format, 5-HT2B; format: cell-based; conditions: % activity relative to control ligand, read-out: 5-HT2B agonist efficacy @5 µM
T3 construct: host or cells: unnamed cell lines
Procedure: as §1, §2, §3, §4, §5

[5] = Metabolic stability in human liver microsomes; format: in vitro ADME; conditions: for difference in half-life and intrinsic clearance compared with reference compound (R)-1-(5-methoxy-1H-indol-1-yl)-N,N-dimethylpropan-2-amine / microsomal CLint at 1 μM: human liver microsomes; for difference in half-life and intrinsic clearance compared with reference compound (R)-1-(5-methoxy-1H-indol-1-yl)-N,N-dimethylpropan-2-amine: comment on Table 2; for half-life at 1 μM / microsomal CLint at 1 μM / CLint scaled at 1 μM: liver microsomes (pooled); for half-life at 1 μM: human liver microsomes 0.5 mg/mL, test compound 1.0 μM, 37° C., NADPH; for microsomal CLint at 1 μM: intrinsic clearance = 0.693/T1/2/mg microsome protein per mL, read-out: CLint(mic); for CLint scaled at 1 μM: human, scaled from CLint(mic) with 45 mg microsomal protein/g liver and 20 g liver/kg
Procedure: The test compound at 1.0 μM in singlet, or positive controls including Testosterone (CYP3A4 substrate), Propafenone (CYP2D6 substrate) or Diclofenac (CYP2C9 substrate) was incubated with the liver microsomes (Corning, Xenotech, or other credible vendor, pooled from multiple donors) at 0.5 mg/mL, respectively. The mixture was warmed up at 37° C. for 10 minutes and the reactions were initiated by the addition of a NADPH regenerating system (˜1.0 mM). The test compound incubated with the liver microsomes at 37° C. without the NADPH regenerating system served as the negative control reaction.
The reaction samples were removed at multiple time points (such as 0, 5, 15, 30, 45 and 60 minutes) and the sample without NADPH (NCF) was removed at 60 minutes. All the samples were immediately mixed with cold acetonitrile containing internal standard (IS) to stop the reaction.
Samples were analyzed by LC/MS/MS and the disappearance of test compound were assessed base on peak area ratios of analyte/IS (no standard curve). The microsomal intrinsic clearance and T1/2 values were calculated using the following equation: […]
The microsomal intrinsic clearance and T1/2 values were calculated using the following equation: […]
In these experiments the comparator compound was a suitable reference standard. In one embodiment the comparator compound was (R)-1-(5-methoxy-1H-indol-1-yl)-N,N-dimethylpropan-2-amine.

[6] = test system: 5HT2A sensor; conditions: general statement on known hallucinogens and non-hallucinogenic congeners; cited from earlier work

T3 sequence (P41595 whole entry): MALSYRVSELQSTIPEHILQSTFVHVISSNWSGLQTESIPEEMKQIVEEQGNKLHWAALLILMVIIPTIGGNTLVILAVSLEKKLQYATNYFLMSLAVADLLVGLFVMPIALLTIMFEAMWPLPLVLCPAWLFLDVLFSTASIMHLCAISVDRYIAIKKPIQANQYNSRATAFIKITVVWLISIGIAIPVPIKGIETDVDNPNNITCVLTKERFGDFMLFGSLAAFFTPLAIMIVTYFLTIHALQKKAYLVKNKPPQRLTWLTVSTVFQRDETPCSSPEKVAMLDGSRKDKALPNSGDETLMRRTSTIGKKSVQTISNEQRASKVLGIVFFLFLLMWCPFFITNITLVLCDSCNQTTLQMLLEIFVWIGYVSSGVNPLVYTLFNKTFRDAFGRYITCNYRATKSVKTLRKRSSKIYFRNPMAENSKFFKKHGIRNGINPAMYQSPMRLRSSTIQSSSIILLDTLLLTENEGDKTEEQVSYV
T1 sequence (P28223 whole entry): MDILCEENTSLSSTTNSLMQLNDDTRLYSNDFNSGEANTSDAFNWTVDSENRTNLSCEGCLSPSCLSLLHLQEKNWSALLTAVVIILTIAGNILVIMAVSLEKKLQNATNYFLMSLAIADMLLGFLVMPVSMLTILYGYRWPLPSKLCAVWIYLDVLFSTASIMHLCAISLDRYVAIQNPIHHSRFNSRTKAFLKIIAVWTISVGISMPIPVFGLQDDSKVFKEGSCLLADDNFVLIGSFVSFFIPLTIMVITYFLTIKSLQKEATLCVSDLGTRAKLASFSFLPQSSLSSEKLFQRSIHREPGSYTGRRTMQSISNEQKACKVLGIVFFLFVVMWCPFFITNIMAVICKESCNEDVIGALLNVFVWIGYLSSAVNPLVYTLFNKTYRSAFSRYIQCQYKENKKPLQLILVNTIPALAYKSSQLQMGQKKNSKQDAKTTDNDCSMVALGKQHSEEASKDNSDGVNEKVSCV

SMILES	activation at 10 µM [1] [%]	inhibition at 10 µM [2] [%]	inhibition at 0.1 µM [3] [%]	activation at 5 µM [4] [%]	activation of the 5HT2A sensor assay in agonist mode [6]	other results
C[C@H](Cn1ccc2c3c(ccc21)OCCC3)N(C)C [Compound 3, (R)-1-(8,9-dihydropyrano[3,2-e]indol-3(7H)-yl)-N,N-dimethylpropan-2-amine]	9.7	98.1	-7.3	1	–	antagonism of the 5-HT2C receptor [2]: approximately 98%
C[C@H](Cn1ccc2cc(S(=O)(=O)C3CC3)ccc21)N(C)C [Compound 4, (2R)-1-(5-cyclopropylsulfonylindol-1-yl)-N,N-dimethyl-propan-2-amine]	-1.5	6.2	-9.1	-0.6	–	–
[2H]C([2H])([2H])Oc1ccc2c(ccn2C([2H])([2H])[C@]([2H])(N(C)C)C([2H])([2H])[2H])c1 [Compound 151, (2R)-1,1,1,2,3,3-hexadeuterio-N,N-dimethyl-3-[5-(trideuteriomethoxy)indol-1-yl]propan-2-amine]	–	–	–	–	–	difference in half-life and intrinsic clearance compared with reference compound (R)-1-(5-methoxy-1H-indol-1-yl)-N,N-dimethylpropan-2-amine [5]: most significant difference in half-life and intrinsic clearance ratio; half-life at 1 μM [5]: 2 h; microsomal CLint at 1 μM [5]: 11.5 µL/min/mg; CLint scaled at 1 μM [5]: 10.4 mL/min/kg
COc1cc(CC(C)N)c(OC)cc1I (stereo not shown) [DOI, 2,5-dimethoxy-4-iodoamphetamine]	–	–	–	–	activate the 5HT2A sensor assay in agonist mode	–
C[C@H](Cn1ccc2cc(S(F)(F)(F)(F)F)ccc21)N(C)C [Compound 2, (2R)-N,N-dimethyl-1-[5-(pentafluoro-λ^6-sulfanyl)indol-l-yl]propan-2-amine]	4.4	76.4	-0.8	6.4	–	–
CCN(CC)CCc1c[nH]c2cc(F)ccc12 [Compound 6-F-DET]	–	–	–	–	do not activate the 5HT2A sensor assay in agonist mode	–
[2H]C([2H])([2H])Oc1ccc2c(ccn2C([2H])([2H])[C@]([2H])(N(C([2H])([2H])[2H])C([2H])([2H])[2H])C([2H])([2H])[2H])c1 [Compound 152, (2R)-1,1,1,2,3,3-hexadeuterio-3-[5-(trideuteriomethoxy)indol-1-yl]-N,N-bis(trideuteriomethyl)propan-2-amine]	–	–	–	–	–	difference in half-life and intrinsic clearance compared with reference compound (R)-1-(5-methoxy-1H-indol-1-yl)-N,N-dimethylpropan-2-amine [5]: significant and beneficial differences in half-life and intrinsic clearance; half-life at 1 μM [5]: 1.91 h; microsomal CLint at 1 μM [5]: 12.4 µL/min/mg; CLint scaled at 1 μM [5]: 11.1 mL/min/kg
COc1ccn2c(CC(C)N(C)C)cnc2c1 (racemic) [Compound 91, (R/S)-1-(7-methoxyimidazo[1,2-a]pyridin-3-yl)-N,N-dimethylpropan-2-amine]	0.6	6.1	-3.3	1	–	–
COc1ccc2c(CCN(C)C)c[nH]c2c1 [Compound 6-MeO-DMT]	–	–	–	–	do not activate the 5HT2A sensor assay in agonist mode	–
CCN(CC)C(=O)[C@@H]1C=C2c3cccc4[nH]cc(c34)C[C@H]2N(C)C1 [LSD, lysergic acid diethylamide]	–	–	–	–	activate the 5HT2A sensor assay in agonist mode	–
O=C(c1ccc(F)cc1)C1CCN(CCn2c(=O)[nH]c3ccccc3c2=O)CC1 [Ketanserin, ketanserin]	–	–	–	–	do not activate the 5HT2A sensor assay in agonist mode	–
COc1ccn2c(CC(C)N(C)C)ncc2c1 (racemic) [Compound 92, (R/S)-1-(7-methoxyimidazo[1,5-a]pyridin-3-yl)-N,N-dimethylpropan-2-amine]	0.3	7.2	1.6	2	–	–
[2H]C([2H])([2H])N(C([2H])([2H])[2H])[C@]([2H])(C([2H])([2H])[2H])C([2H])([2H])n1ccc2cc(OC)ccc21 [Compound 6, (2R)-1,1,1,2,3,3-hexadeuterio-3-(5-methoxyindol-1-yl)-N,N-bis(trideuteriomethyl)propan-2-amine]	–	–	–	–	–	difference in half-life and intrinsic clearance compared with reference compound (R)-1-(5-methoxy-1H-indol-1-yl)-N,N-dimethylpropan-2-amine [5]: significant and beneficial differences in half-life and intrinsic clearance; half-life at 1 μM [5]: 1.82 h; microsomal CLint at 1 μM [5]: 12.7 µL/min/mg; CLint scaled at 1 μM [5]: 11.4 mL/min/kg
CC(Cc1ncn2cc(F)ccc12)N(C)C (racemic) [Compound 93, (R/S)-1-(6-fluoroimidazo[1,5-a]pyridin-1-yl)-N,N-dimethylpropan-2-amine]	1.8	97.1	5.7	2.7	–	antagonism of the 5-HT2C receptor [2]: ~97%
CN(C)CCc1c[nH]c2ccccc12 [DMT, N,N-dimethyltryptamine]	–	–	–	–	activate the 5HT2A sensor assay in agonist mode	–
CN[C@H](C)Cc1ccc2c(c1)OCO2 [L-MDMA]	–	–	–	–	do not activate the 5HT2A sensor assay in agonist mode	–
CCN(CC)C(=O)[C@@H]1C=C2c3cccc4[nH]c(Br)c(c34)C[C@H]2N(C)C1 [BOL148]	–	–	–	–	do not activate the 5HT2A sensor assay in agonist mode	–

Source: patent US20260138948A1, “N-SUBSTITUTED INDOLES AS 5-HYDROXYTRYPTAMINE (5-HT) SEROTONIN RECEPTOR AGONISTS AND ANTAGONISTS” (Terran Biosciences Inc., priority 2021, published 2026)
